Assay results: paper PMC6491728, “Application of in vitro Drug Metabolism Studies in Chemical Structure Optimization for the Treatment of Fibrodysplasia Ossificans Progressiva (FOP)” (Frontiers in Pharmacology, 2019)
≈ marks a conversion by molar mass, not a printed value. Like-named read-outs stand apart in the source and are kept apart here.

Key:
[1] = biological target: T1, ALK2 (Mus musculus, UniProt P37172); experiment: BMP6-stimulated SMAD1/5/8 phosphorylation in C2C12 cells (HTRF); format: cell-based; details: for IC50: C2C12 cells, SMAD1/5/8 phosphorylation, HTRF, read-out: BMP6 (mediated by ALK2) IC50
T1 construct: determined in C2C12 cell lines (ATCC; Manassas, VA, United States); host or cells: C2C12
T1 sequence (P37172 21-509): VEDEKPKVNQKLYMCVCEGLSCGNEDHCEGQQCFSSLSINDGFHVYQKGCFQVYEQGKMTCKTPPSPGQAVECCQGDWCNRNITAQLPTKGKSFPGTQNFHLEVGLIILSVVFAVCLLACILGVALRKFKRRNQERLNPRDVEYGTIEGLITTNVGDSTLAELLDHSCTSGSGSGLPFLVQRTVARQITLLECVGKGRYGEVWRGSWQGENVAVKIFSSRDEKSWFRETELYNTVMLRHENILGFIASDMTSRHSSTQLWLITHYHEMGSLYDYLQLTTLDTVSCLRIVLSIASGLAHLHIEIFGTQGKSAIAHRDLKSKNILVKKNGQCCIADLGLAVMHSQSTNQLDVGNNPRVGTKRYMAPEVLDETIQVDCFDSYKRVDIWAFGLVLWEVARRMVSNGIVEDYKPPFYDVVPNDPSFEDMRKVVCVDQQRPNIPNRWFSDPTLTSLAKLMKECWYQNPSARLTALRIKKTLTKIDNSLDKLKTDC
Experimental: (§1) The in vitro activity toward to ALK2 and the selectivity over ALK3 and ALK5 were determined in C2C12 cell lines (ATCC; Manassas, VA, United States) through measuring the phosphorylation level of SMAD1/5/8 (for ALK2 and ALK3) or SMAD2/3 (for ALK5) under the stimulation of BMP6 (mediated by ALK2), BMP4 (mediated by ALK3) and TGFβ (mediated by ALK5), respectively, by using homogeneous time resolved fluorescence (HTRF; a manuscript in preparation).

[2] = Kinetic solubility (μSOL Evolution, pH 7.4 phosphate buffer); format: physicochemical; details: pH 7.4, aqueous buffer, kinetic from dmso stock
Experimental: Kinetic solubility was measured using the μSOL Evolution system from pION Inc. (Billerica, MA, United States). Saturation shake-flask solubility method was adapted as previously described ([Avdeef and Berger, 2001]). Briefly, 10 mM DMSO stock was diluted to a final drug concentration of 150 μM in the aqueous solution (pH 7.4, 100 mM phosphate buffer) in duplicates. The solution was kept at room temperature for 6 h for equilibration. After equilibration, precipitates were removed using Tecan Te-Vac vacuum-filter and the compound concentration was measured by UV absorbance (λ: 250–498 nm). Data was compared to a fully solubilized reference solution of the test article at 17 μM in spectroscopically pure n-propanol. The kinetic solubility (μg/mL) was calculated using the μSOL Evolution software.

[3] = Metabolite profiling in human liver microsomes and cytosol (LC/UV/MS, inhibitors, trapping)
[4] = Stirring double-sink PAMPA permeability; format: in vitro ADME; details: passive diffusion
Experimental: Parallel Artificial Membrane Permeability Assay (PAMPA) was employed to determine the passive diffusion permeability of LDN-193189 and analogs. Stirring double-sink PAMPA method (pION Inc.) was employed to determine the permeability of compounds. The method was performed as described previously ([Sun et al., 2017]).

[5] = biological target: T2, ALK5 (Mus musculus, UniProt Q64729); experiment: TGFβ-stimulated SMAD2/3 phosphorylation in C2C12 cells (HTRF); format: cell-based
T2 construct: determined in C2C12 cell lines (ATCC; Manassas, VA, United States); host or cells: C2C12
T2 sequence (Q64729 30-503): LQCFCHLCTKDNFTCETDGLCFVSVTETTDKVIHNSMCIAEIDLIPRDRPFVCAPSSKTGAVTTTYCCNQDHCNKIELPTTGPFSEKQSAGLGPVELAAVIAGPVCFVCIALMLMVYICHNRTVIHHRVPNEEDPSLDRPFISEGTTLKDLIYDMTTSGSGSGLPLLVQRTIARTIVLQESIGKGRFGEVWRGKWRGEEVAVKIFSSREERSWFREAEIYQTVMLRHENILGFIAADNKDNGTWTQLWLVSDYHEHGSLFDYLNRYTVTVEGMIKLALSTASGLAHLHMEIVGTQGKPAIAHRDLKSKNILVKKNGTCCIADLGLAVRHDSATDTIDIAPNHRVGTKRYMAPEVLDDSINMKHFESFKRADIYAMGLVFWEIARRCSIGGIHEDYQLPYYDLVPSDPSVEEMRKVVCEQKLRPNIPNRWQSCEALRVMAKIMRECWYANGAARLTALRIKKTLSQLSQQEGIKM
Experimental: as §1

[6] = In vitro metabolic stability screening assay with rat liver microsomes; format: in vitro ADME; details: rat liver microsomes 0.5 mg/mL, 1 μM compound, single time point 15 min, 37°C; read-out: Microsomal Stability t1/2
Experimental: In vitro metabolic stability screening assay was conducted with rat liver microsomes in a 96-well plate, where 1 μM of compound was incubated with 0.5 mg/mL of rat liver microsomal protein. A single time point was collected at 15 min after an incubation at 37°C. […] When the half-life was greater than 30 min, results were presented as >30 min.

[7] = Metabolite formation in human and mouse liver subcellular fractions (LC/UV/MS, trapping); format: in vitro ADME; details: for cyanide (KCN) adduct: KCN trapping; for metabolism in cytosol incubation (AO-mediated): liver cytosol; for GSH adduct: microsomal incubation with NADPH and GSH, mouse and human; for Species in which the metabolite of Compound 2 was observed / Species in which the metabolite of Compound 3 was observed: H human, M mouse
[8] = biological target: T3, ALK3 (Mus musculus, UniProt P36895); experiment: BMP4-stimulated SMAD1/5/8 phosphorylation in C2C12 cells (HTRF); format: cell-based; details: read-out: BMP4 (mediated by ALK3) IC50
T3 construct: determined in C2C12 cell lines (ATCC; Manassas, VA, United States); host or cells: C2C12
Experimental: as §1

[9] = Metabolite profiling of LDN-193189 in liver microsomal/cytosolic fractions of six species (LC/UV/MS, GSH and KCN trapping); details: for Species in which the metabolite of LDN-193189 was observed: LDN-193189 10 μM, 60 min, M mouse, R rat, Rb rabbit, D dog, Mo monkey, H human; for metabolite found in rat microsomal incubation with LDN-193189: rat liver microsomes
Experimental: Total incubation volume per sample was 1 mL. The metabolic reactions were initiated by the addition of cofactors, NADPH-regenerating system and UDPGA, after a pre-incubation at 37°C for 5 min. The incubation mixtures were placed in a shaking water bath at 37°C for 60 min. At the end of the reaction, three volumes of ACN were added, followed by vortexing and centrifugation to remove proteins. The supernatants were transferred to clean tubes and dried completely under a stream of nitrogen at ambient temperature. The dried residues were reconstituted with 500 μL of 25% MeOH in water and transferred into HPLC vials for LC/UV/MS analysis.
Chromatography was accomplished on a Phenomenex Luna, C18 (2) column, 3.0 × 250 mm, 5 μm (Torrance, CA, United States). The column was kept at ambient temperature during sample analysis. The mobile phases were HPLC grade water (solvent A) and ACN (solvent B), both of which contained 0.1% trifluoroacetic acid (TFA). […] The first 4 min of the HPLC flow was diverted to waste prior to evaluation of metabolites.
To facilitate distinction of carbon or heteroatom oxidations, hydrogen/deuterium (H/D) exchange experiments were performed by replacing the aqueous mobile phase (H2O) with D2O while keeping the rest of assay conditions unchanged.
UV absorption spectra from 200 to 400 nm were recorded using a diode array detector. The Thermo Finnigan LTQ XL mass spectrometer was equipped with an electrospray ionization (ESI) interface and operated in positive ionization mode for metabolite profiling and identification. Mass spectra were acquired in full scan (MS) (m/z 200–1000) and data dependent scan (MS^2, MS^3, and MS^4) modes. The ESI spray voltage was +5kV with capillary temperature of 300°C. Sheath gas and auxiliary gas were 80 and 20 arbitrary units, respectively. Activation Q was 0.25 and Activation time 30 ms. The collision energy used to obtain fragments was set at 40 eV.

[10] = design: method as in Cuny et al., 2008; details: mice, intraperitoneal administration; ref Cuny et al., 2008; cited from earlier work
[11] = tested on: mouse FOP disease model; design: method as in Yu et al., 2008a; details: ref Yu et al., 2008a; cited from earlier work
[12] = C2C12 cells, SMAD2/3 phosphorylation, HTRF, read-out: TGFβ (mediated by ALK5) IC50

T3 sequence (P36895 24-532): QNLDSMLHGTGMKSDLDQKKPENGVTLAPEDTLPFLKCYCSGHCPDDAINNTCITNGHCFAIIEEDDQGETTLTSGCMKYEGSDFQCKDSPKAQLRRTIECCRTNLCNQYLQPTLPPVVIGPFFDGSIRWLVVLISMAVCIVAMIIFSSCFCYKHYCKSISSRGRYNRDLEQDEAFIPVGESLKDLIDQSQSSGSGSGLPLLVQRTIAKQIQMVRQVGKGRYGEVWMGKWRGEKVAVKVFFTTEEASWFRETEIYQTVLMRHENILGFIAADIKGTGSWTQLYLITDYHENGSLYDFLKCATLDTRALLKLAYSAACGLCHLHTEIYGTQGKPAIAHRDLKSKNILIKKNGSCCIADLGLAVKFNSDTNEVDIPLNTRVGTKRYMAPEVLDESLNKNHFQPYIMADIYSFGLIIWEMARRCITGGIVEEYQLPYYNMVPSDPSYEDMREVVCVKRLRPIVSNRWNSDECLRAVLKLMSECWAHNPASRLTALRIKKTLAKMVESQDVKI

In the case of Cc1cc(-c2cnn3cc(-c4ccc(N5CCNCC5)cc4)cnc23)c2ccccc2n1 [Compound 1], the IC50 [1] is reported as 120 nM, the solubility at 6 h [2] is reported as 1 µg/mL (≈ 2.38 µM) and the glucuronide conjugate ([3]; UDPGA-fortified human liver microsomes) is reported as “No glucuronide conjugate was observed”. For the same compound, the “metabolism in cytosol incubation (AO-mediated)” value (shortened to “metabolism in cytosol incubation”) ([3]; human liver cytosol) was “No metabolism was observed”, the “extent of metabolism in human liver microsomes” value ([3]; human liver microsomes) was “metabolized moderately” and the “GSH adduct in trapping experiments” value ([3]; human liver microsomes, GSH) was “no GSH or cyanide adduct was detected”. For the same compound, the “cyanide adduct in trapping experiments” value ([3]; human liver microsomes, KCN) was “no GSH or cyanide adduct was detected”, the aniline derivatives ([3]; human microsomal fractions) was “No aniline derivatives were observed” and the Papp [4] was 437 ×10⁻⁶ cm/s. It also gave an IC50 [5] of 987 nM and a half-life at 1 μM [6] greater than 30 min.

Work on c1ccc2c(-c3cnn4cc(-c5ccc(OCCN6CCCCC6)nc5)cnc34)ccnc2c1 [Compound 2] yielded an IC50 [1] of 227 nM, a solubility at 6 h [2] of less than 1 µg/mL and a Papp [4] of 7 ×10⁻⁶ cm/s. For the same compound, the IC50 [5, 12] was 27400 nM, the aniline formation [7] was “not detected” and the “cyanide (KCN) adduct” value [7] was “not detected”. For the same compound, the “metabolism in cytosol incubation” value [7] was “An oxidative metabolite was observed”, the GSH adduct [7] was “observed only in mouse microsomal incubation” and the half-life at 1 μM [6] was 22 min. The IC50 [8] was 3270 nM.

In the case of Cc1cc(-c2cnn3cc(-c4ccc(OCCN5CCCCC5)nc4)cnc23)c2ccccc2n1 [Compound 3], the IC50 [1] is reported as 466 nM, the “potency against ALK2 mediated signaling compared to LDN-193189” value ([1]; relative to LDN-193189) is reported as “threefold less potent” and the solubility at 6 h [2] is reported as 36.2 µg/mL (≈ 77.9 µM). The Papp [4] was 1070 ×10⁻⁶ cm/s, the IC50 [5, 12] was 2660 nM and the aniline formation [7] was “Neither aniline formation nor cytosolic metabolism were observed”. For the same compound, the “cyanide (KCN) adduct” value [7] was “No cyanide adduct or glucuronide conjugate was observed”, the glucuronide conjugate ([7]; UDPGA) was “No cyanide adduct or glucuronide conjugate was observed” and the “metabolism in cytosol incubation” value [7] was “No metabolite formation was observed”. For the same compound, the GSH adduct [7] was “observed only in mouse microsomal incubation”, the half-life at 1 μM [6] was greater than 30 min and the IC50 [8] was 4340 nM.

For Nc1ccc(-c2cnc3c(-c4ccnc5ccccc45)cnn3c2)cc1 [Compound M337], the “Species in which the metabolite of LDN-193189 was observed” value (from here on “Species … of LDN-193189 was observed”) [9] was “M, Rb, D, Mo, H” and the “metabolite found in rat microsomal incubation with LDN-193189” value [9] was “not found”.

In the case of NCCNc1ccc(-c2cnc3c(-c4ccnc5ccccc45)cnn3c2)cc1 [Compound M380], the “metabolite found in rat microsomal incubation with LDN-193189” value [9] is reported as “not found”.

For OCCNc1ccc(-c2cnc3c(-c4ccnc5ccccc45)cnn3c2)cc1 [Compound M381], the “Species … of LDN-193189 was observed” value [9] was “Rb, D, Mo, H”.

With O=C(O)CNc1ccc(-c2cnc3c(-c4ccnc5ccccc45)cnn3c2)cc1 [Compound M395] the “Species … of LDN-193189 was observed” value [9] was “Rb, D, Mo, H”.

In the case of Cc1cc(-c2cnn3cc(-c4ccc(OCCO)nc4)cnc23)c2ccccc2n1 [Compound M397], the “Species in which the metabolite of Compound 2 was observed” value [7] is reported as “H, M” and the “Species in which the metabolite of Compound 3 was observed” value [7] is reported as “H, M”.

For Cc1cc(-c2cnn3cc(-c4ccc(OCC(=O)O)nc4)cnc23)c2ccccc2n1 [Compound M411], the “Species in which the metabolite of Compound 3 was observed” value [7] was “H, M”.

With O=C1CN(c2ccc(-c3cnc4c(-c5ccnc6ccccc56)cnn4c3)cc2)CCN1 [Compound M420] the “Species … of LDN-193189 was observed” value [9] was “M, R, Rb, D, Mo, H”.

With Oc1cc(-c2cnn3cc(-c4ccc(N5CCNCC5)cc4)cnc23)c2ccccc2n1 [Compound M422c] the “Species … of LDN-193189 was observed” value [9] was “all species except dog”.

For N#CC1CNCCN1c1ccc(-c2cnc3c(-c4ccnc5ccccc45)cnn3c2)cc1 (stereo not shown) [Compound M431], the “Species … of LDN-193189 was observed” value [9] was “M, R, Rb, D, Mo, H”.

For NCCN(CC(=O)O)c1ccc(-c2cnc3c(-c4ccnc5ccccc45)cnn3c2)cc1 [Compound M438], the “Species … of LDN-193189 was observed” value [9] was “M, R, Rb, D, Mo, H”.

For N#CC1CNC(=O)CN1c1ccc(-c2cnc3c(-c4ccnc5ccccc45)cnn3c2)cc1 (stereo not shown) [Compound M445], the “Species … of LDN-193189 was observed” value [9] was “M, R, Rb, D, Mo, H”.

In the case of O=c1cc(-c2cnn3cc(-c4ccc(OCCN5CCCCC5)nc4)cnc23)c2ccccc2[nH]1 [Compound M466d], the “Species in which the metabolite of Compound 2 was observed” value [7] is reported as “H, M”.

In the case of c1ccc2c(-c3cnn4cc(-c5ccc(N6CCNCC6)cc5)cnc34)ccnc2c1 [LDN-193189, reference compound], the solubility at 6 h [2] is reported as 1.1 µg/mL (≈ 2.71 µM), the “formation of M422c on addition of XO inhibitor allopurinol” value ([3]; human liver cytosol, allopurinol 0.1 mM) is reported as “did not result in a change” and the “formation of M422c in the presence of AO inhibitor menadione” value ([3]; human liver cytosol, menadione 1 mM) is reported as “reduced”. The “plasma t1/2” value [10] was 96 min, the Papp [4] was 320 ×10⁻⁶ cm/s and the glucuronide conjugates ([9]; UDPGA 2 mM) was “no glucuronide conjugates observed”. For the same compound, the “GSH trapping of reactive metabolites” value ([9]; liver microsomes from any species, GSH 2 mM) was “no “soft electrophiles” were produced”, the “rank ordering of the metabolic conversion in liver microsomes” value ([9]; liver microsomes, no cytosol added) was “dog > rabbit > mouse > human ∼ monkey > rat” and the “extent of metabolic conversion to M422c, order of species” value ([9]; liver preparations with cytosol) was “monkey > rabbit > human > mouse > rat with no conversion observed in dog liver preparations”. For the same compound, the “efficacy in an animal model of FOP” value [11] was “efficacious”, the half-life at 1 μM [6] was greater than 30 min and the IC50 [8] was 585 nM.

For CN1CCC[C@H]1c1cccnc1 [Nicotine, reference compound], the “cyanide adducts in KCN trapping” value ([9]; liver microsomes, KCN 0.1 mM) was “produced the expected cyanide derivatives”.

In the case of C[C@]12CC[C@H]3[C@@H](CCC4=CC(=O)CC[C@@]43C)[C@@H]1CC[C@@H]2O [testosterone, reference compound], the “metabolite formation of positive control” value ([3]; human liver microsomes, 100 μM, 20 min) is reported as “showed the expected metabolite formation”.
